Experimental data as given in patent US8674061B2, “Multiligand constructs” (priority 2008, dated 2014).

What was measured:
Assay type in all cases: binding
Details in all cases: relative to 6′SLN = 1, KD based on concentration of sialic acid residues, averaged
[1] = tested on: influenza virus A/Nib/23/89M-MA (H1N1)
[2] = tested on: influenza virus A/Nib/26/90M (H3N2)
[3] = tested on: influenza virus B/Nib/48/90M

Neu5Acα2-6Galβ1-4GlcNAcβ-O— [6′SLN, reference compound]
1: Relative inhibitory activity of tetraligand constructs [1] | Relative inhibitory activity of triligand constructs [1] | Relative inhibitory activity of tetraligand constructs [2] | Relative inhibitory activity of triligand constructs [2] | Relative inhibitory activity of tetraligand constructs [3] | Relative inhibitory activity of triligand constructs [3]
